pEC50, pIC50, pKi: −log10 of the molar value. The source made the active and inactive calls. No cut-off for these calls is given here.
Legend:
Rattus norvegicus [1] = test: Procognitive activity in Sprague-Dawley rat assessed as increase in working memory at 1 mg/kg, po administered QD for 3 days 30 mins prior to testing by novel object recognition test (reference value: 51%); assay type: functional
Rattus norvegicus [2] = test: Procognitive activity in Sprague-Dawley rat assessed as increase in working memory at 0.3 to 3 mg/kg, po administered QD for 3 days 30 mins prior to testing by novel object recognition test; assay type: functional, organism-based
Cytochrome P450 2D6 = Cytochrome P450 2D6 (Homo sapiens, UniProt P10635); test: Inhibition of CYP2D6; assay type: ADME
Sequence of Cytochrome P450 2D6 (P10635 whole entry): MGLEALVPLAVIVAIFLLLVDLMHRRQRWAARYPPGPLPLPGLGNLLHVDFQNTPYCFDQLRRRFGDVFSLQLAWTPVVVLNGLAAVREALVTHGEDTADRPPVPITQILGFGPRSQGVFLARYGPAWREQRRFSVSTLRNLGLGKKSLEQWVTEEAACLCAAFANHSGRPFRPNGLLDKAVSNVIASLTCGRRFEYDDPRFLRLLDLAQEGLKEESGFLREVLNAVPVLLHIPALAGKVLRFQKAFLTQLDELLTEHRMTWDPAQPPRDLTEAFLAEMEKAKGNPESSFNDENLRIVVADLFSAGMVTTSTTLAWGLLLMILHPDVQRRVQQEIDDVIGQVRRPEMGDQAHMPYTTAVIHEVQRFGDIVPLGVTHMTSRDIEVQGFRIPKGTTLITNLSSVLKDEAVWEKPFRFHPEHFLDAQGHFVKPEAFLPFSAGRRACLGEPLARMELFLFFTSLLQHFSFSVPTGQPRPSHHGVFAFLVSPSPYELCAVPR

hERG (KCNH2) = hERG (KCNH2) (Homo sapiens, UniProt Q12809); test: Inhibition of human ERG at 10 uM
[3] = target: T1, 5-hydroxytryptamine receptor 3A (Homo sapiens) (UniProt P46098); test: Inhibition of 5HT3 receptor at 10 uM
T1 sequence (whole entry): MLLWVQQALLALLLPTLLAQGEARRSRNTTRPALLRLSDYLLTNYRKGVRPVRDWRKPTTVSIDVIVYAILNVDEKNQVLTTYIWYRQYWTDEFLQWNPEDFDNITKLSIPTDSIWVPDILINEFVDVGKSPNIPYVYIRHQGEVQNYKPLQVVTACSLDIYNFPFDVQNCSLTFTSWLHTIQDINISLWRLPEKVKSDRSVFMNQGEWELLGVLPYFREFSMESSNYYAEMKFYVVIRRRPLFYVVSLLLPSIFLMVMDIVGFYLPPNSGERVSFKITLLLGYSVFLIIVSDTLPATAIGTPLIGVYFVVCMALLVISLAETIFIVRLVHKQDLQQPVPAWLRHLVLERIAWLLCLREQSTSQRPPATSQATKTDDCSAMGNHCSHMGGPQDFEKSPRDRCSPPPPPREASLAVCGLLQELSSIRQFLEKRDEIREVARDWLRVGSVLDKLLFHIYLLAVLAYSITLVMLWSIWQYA

[4] = Inhibition of adrenergic alpha2 receptor at 10 uM
[5] = Agonist activity at ganglion nAChR; assay type: functional
[6] = target: Acetylcholine receptor; alpha1/beta1/delta/gamma (Homo sapiens) (UniProt P02708+P07510+P11230+Q07001); test: Agonist activity at alpha1beta1gammadelta nAChR; assay type: functional
[7] = target: T2, Neuronal acetylcholine receptor; alpha4/beta2 (Homo sapiens, UniProt P17787+P43681); test: Partial agonist activity at alpha4beta2 nAChR in human SH-EP1 cells assessed as calcium flux by calcium4-based FLIPR assay relative to nicotine; assay type: functional, cell-based
T2 sequence (P17787 whole entry): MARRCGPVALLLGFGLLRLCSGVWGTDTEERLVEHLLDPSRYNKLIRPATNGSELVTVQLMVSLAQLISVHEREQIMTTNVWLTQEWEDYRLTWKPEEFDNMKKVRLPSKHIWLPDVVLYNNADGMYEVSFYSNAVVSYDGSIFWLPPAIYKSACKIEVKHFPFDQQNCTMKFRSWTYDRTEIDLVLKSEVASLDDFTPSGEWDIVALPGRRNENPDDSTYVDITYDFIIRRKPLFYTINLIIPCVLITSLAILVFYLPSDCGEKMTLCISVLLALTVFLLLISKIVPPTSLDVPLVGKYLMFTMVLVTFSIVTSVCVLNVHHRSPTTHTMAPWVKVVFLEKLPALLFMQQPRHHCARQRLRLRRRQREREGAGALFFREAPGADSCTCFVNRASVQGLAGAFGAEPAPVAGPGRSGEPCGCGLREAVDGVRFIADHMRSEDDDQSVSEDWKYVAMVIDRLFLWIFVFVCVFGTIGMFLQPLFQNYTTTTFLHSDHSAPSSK
T2 sequence (P43681 whole entry): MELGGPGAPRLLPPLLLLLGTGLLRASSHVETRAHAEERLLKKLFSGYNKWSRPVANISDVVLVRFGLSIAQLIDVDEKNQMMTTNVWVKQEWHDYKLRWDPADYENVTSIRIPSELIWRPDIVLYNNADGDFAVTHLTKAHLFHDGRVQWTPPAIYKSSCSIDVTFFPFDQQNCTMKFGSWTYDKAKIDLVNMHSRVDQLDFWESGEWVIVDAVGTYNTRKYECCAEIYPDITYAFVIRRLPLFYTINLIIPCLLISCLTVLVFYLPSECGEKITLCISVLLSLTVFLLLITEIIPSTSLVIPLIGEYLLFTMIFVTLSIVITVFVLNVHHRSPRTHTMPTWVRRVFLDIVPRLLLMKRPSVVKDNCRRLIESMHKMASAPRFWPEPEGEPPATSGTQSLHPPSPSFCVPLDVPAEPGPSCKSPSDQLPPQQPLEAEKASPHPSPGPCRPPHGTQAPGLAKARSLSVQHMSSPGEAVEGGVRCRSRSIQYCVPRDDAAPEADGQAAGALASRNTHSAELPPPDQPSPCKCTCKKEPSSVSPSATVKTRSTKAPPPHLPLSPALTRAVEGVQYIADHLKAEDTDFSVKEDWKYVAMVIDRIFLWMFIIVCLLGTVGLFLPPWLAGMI

[8] = target: T2, Neuronal acetylcholine receptor; alpha4/beta2; test: Partial agonist activity at alpha4beta2 nAChR in human SH-EP1 cells assessed as calcium flux by calcium4-based FLIPR assay; assay type: functional, cell-based
[9] = target: T3, Neuronal acetylcholine receptor; alpha3/beta4 (Homo sapiens, UniProt P30926+P32297); test: Agonist activity at human alpha3beta4 nAChR expressed in CHO cells assessed as calcium flux by calcium4-based FLIPR assay relative to nicotine; assay type: functional, cell-based
T3 sequence (P30926 whole entry): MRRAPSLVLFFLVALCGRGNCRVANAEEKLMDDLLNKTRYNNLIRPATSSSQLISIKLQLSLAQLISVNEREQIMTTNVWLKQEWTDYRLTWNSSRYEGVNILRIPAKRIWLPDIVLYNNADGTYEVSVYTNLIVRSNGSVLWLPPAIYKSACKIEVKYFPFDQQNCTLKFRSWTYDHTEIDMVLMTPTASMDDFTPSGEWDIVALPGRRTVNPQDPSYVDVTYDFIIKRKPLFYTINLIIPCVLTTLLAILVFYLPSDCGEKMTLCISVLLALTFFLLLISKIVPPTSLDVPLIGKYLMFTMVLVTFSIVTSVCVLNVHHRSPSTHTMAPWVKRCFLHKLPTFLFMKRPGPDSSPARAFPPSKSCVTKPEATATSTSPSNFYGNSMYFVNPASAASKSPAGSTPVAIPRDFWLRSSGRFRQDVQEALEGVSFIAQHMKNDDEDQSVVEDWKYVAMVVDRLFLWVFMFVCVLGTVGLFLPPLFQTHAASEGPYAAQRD
T3 sequence (P32297 whole entry): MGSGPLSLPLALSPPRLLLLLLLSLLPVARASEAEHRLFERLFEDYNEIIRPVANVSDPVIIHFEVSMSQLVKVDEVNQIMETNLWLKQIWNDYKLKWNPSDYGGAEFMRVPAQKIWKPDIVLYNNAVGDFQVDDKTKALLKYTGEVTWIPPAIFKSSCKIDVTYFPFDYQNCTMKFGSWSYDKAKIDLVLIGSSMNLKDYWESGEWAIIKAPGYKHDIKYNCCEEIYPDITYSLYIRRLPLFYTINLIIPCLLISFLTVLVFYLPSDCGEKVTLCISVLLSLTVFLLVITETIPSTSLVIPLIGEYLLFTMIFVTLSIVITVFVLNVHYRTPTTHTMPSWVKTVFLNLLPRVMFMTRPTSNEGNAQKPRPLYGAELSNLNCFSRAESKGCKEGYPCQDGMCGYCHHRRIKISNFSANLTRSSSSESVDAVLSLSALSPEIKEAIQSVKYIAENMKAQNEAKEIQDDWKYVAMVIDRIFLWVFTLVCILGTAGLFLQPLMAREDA

[10] = target: T3, Neuronal acetylcholine receptor; alpha3/beta4; test: Agonist activity at human alpha3beta4 nAChR expressed in CHO cells assessed as calcium flux by calcium4-based FLIPR assay; assay type: functional, cell-based
[11] = target: Neuronal acetylcholine receptor subunit alpha-7 (Homo sapiens, UniProt P36544); test: Displacement of [3H]epibatidine from human alpha7 nAChR expressed in CHO cells after 2 hrs by liquid scintillation counting; assay type: cell-based
Sequence of Neuronal acetylcholine receptor subunit alpha-7 (P36544 whole entry): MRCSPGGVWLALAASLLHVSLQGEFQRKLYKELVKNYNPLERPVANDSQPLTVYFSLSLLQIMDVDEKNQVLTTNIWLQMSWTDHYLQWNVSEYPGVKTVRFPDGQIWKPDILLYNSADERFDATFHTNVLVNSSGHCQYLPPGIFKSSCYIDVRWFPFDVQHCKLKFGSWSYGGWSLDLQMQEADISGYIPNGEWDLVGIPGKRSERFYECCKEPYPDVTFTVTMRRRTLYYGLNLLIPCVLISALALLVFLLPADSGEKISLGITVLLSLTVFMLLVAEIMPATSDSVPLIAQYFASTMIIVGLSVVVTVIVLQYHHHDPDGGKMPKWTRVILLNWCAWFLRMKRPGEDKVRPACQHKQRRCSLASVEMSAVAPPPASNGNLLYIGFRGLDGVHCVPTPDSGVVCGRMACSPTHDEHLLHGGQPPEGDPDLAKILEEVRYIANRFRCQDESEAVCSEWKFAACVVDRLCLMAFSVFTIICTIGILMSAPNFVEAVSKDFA

[12] = target: T3, Neuronal acetylcholine receptor; alpha3/beta4; test: Displacement of [3H]epibatidine from human alpha3beta4 nAChR expressed in CHO cells after 2 hrs by liquid scintillation counting; assay type: cell-based
[13] = target: Neuronal acetylcholine receptor; alpha4/beta2 (Rattus norvegicus, UniProt P09483+P12390); test: Displacement of [3H]epibatidine from alpha4beta2 nAChR in Sprague-Dawley rat cortex after 2 hrs by liquid scintillation counting
Sequence of Neuronal acetylcholine receptor; alpha4/beta2 (Rattus norvegicus, UniProt P09483+P12390) (P09483 whole entry): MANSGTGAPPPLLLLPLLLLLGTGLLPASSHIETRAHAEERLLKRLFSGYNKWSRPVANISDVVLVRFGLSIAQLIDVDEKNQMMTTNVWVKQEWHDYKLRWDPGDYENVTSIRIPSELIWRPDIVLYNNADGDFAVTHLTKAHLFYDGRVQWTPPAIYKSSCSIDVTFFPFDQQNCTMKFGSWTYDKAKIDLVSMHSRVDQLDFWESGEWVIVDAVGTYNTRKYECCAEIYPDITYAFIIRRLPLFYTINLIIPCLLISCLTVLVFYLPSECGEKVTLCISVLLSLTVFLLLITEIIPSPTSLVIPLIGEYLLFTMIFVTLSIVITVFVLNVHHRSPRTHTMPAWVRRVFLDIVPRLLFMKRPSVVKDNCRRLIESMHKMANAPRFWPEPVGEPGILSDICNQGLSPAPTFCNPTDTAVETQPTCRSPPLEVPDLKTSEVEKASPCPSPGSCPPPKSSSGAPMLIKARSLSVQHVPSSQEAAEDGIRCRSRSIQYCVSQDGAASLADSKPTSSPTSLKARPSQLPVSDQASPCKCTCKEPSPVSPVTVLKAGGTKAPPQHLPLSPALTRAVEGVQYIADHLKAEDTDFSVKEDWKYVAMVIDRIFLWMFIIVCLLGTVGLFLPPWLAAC
Sequence of Neuronal acetylcholine receptor; alpha4/beta2 (Rattus norvegicus, UniProt P09483+P12390) (P12390 whole entry): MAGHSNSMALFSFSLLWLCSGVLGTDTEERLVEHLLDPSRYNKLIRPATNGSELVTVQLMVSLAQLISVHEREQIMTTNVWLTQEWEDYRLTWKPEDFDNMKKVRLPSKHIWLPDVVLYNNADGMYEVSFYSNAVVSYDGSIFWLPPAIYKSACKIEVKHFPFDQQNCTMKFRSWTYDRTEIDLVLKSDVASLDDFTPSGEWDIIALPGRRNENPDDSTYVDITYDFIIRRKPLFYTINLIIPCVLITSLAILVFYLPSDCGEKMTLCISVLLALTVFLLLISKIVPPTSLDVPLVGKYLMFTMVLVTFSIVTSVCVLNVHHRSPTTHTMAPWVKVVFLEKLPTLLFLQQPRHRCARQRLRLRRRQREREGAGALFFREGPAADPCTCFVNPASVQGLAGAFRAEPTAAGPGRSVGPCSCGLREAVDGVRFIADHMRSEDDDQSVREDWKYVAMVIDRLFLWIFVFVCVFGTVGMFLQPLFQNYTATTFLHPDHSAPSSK

[14] = target: T2, Neuronal acetylcholine receptor; alpha4/beta2; test: Displacement of [3H]nicotine from alpha4beta2 nAChR in human SH-EP1 cells after 2 hrs by liquid scintillation assay; assay type: cell-based
[15] = target: T2, Neuronal acetylcholine receptor; alpha4/beta2; test: Binding affinity to human alpha4beta2 nAChR expressed in xenopus oocyte
[16] = target: T2, Neuronal acetylcholine receptor; alpha4/beta2; test: Apparent antagonist activity at alpha4beta2 nAChR in human SH-EP1 cells assessed as inhibition of nicotine-induced calcium flux by calcium4-based FLIPR assay relative to control; assay type: functional, cell-based
[17] = target: T2, Neuronal acetylcholine receptor; alpha4/beta2; test: Apparent antagonist activity at alpha4beta2 nAChR in human SH-EP1 cells assessed as inhibition of nicotine-induced calcium flux by calcium4-based FLIPR assay; assay type: functional, cell-based
[18] = target: T2, Neuronal acetylcholine receptor; alpha4/beta2; test: Agonist activity at alpha4beta2 nAChR in human SH-EP1 cells assessed as calcium flux by calcium4-based FLIPR assay relative to nicotine; assay type: functional, cell-based
[19] = target: T2, Neuronal acetylcholine receptor; alpha4/beta2; test: Agonist activity at alpha4beta2 nAChR in human SH-EP1 cells assessed as calcium flux by calcium4-based FLIPR assay; assay type: functional, cell-based
Rattus norvegicus [20] = test: Procognitive activity in Sprague-Dawley rat assessed as recognition index at 0.1 mg/kg, po administered QD for 3 days 30 mins prior to testing by novel object recognition test (reference value: 50%); assay type: functional
Rattus norvegicus [21] = test: Procognitive activity in Sprague-Dawley rat assessed as increase in working memory at 0.1 to 0.3 mg/kg, po administered QD for 3 days 30 mins prior to testing by novel object recognition test; assay type: functional, organism-based
[22] = target: T4, 5-hydroxytryptamine receptor 3A (Homo sapiens, UniProt P46098); test: Inhibition of human 5HT3 receptor
T4 sequence (P46098 whole entry): T1 sequence (whole entry)

[23] = target: T1, 5-hydroxytryptamine receptor 3A (Homo sapiens); test: Inhibition of human 5HT3 receptor at 10 uM
[24] = target: T5, 5-hydroxytryptamine receptor 3A (Mus musculus) (UniProt P23979); test: Inhibition of mouse 5HT3 receptor at 10 uM
T5 sequence (whole entry): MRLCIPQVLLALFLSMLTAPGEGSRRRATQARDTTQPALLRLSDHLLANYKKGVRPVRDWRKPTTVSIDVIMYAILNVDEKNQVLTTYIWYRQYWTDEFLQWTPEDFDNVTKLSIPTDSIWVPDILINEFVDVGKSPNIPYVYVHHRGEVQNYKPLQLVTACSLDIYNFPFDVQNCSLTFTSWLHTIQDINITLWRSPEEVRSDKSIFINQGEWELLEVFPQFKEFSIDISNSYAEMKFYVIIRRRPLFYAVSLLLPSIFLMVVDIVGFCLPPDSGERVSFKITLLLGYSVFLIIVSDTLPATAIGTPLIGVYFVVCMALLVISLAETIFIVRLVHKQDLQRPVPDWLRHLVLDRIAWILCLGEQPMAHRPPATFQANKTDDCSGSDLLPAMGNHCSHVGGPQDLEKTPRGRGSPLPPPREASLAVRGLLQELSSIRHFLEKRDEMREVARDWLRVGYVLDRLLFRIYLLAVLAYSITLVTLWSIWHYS

[25] = target: T3, Neuronal acetylcholine receptor; alpha3/beta4; test: Displacement of [3H]epibatidine from alpha3beta4 nAChR in human SH-SY5Y cells after 2 hrs by liquid scintillation counting; assay type: cell-based

Row | SMILES | inhibition (INH) (Cytochrome P450 2D6) | inhibition at 10 µM (hERG (KCNH2)) [%] | Activity [5] | Activity [6] | Emax [9] [%] | pEC50 [10] | pKi [11] | pKi [12] | pKi [13] | pKi [14] | Emax [18] [%] | pEC50 [19] | also measured
1 | O=C(c1ccc(Cl)o1)N1CC2CNCC(C2)C1 | Not Active | < 5 | inactive | inactive | 61 | 4.82 | < 5.00 | 5.19 | 8.15 | 8.30 | – | – | %max (Rattus norvegicus [1]): 75%; Activity (Rattus norvegicus [2]): Active; inhibition [3]: 40%; inhibition [4]: 35%; Emax [7]: 47%; pEC50 [8]: 5.85
2 | CC(=O)/C=C1\CN2CCC1CC2 | – | – | – | – | – | – | – | – | – | – | – | – | pKi [15]: 7.89
3 | O=C(c1ccc(Oc2ccccc2)cc1)N1CC2CNCC2C1 (configuration not stated) | – | – | – | – | 12 | 4.60 | 4.89 | 4.85 | 7.41 | 7.72 | 9 | 4.29 | Imax [16]: 94%; pIC50 [17]: 5.11
4 | O=C(c1ccc(Cl)o1)N1CC2CNCC2C1 (configuration not stated) [AZD1446] | Not Active | < 5 | inactive | inactive | 10 | 4.15 | 5.17 | < 5.00 | 7.47 | 7.52 | 120 | 5.31 | %max (Rattus norvegicus [20]): 74%; Activity (Rattus norvegicus [21]): Active; pKi [22]: 6.15; inhibition [23]: 87%; inhibition [24]: 97%
5 | CCOc1cncc(/C=C/CCNC)c1 | – | – | – | – | 10 | 4.70 | 4.15 | – | 8.22 | 7.92 | 57 | 6.77 | pKi [25]: 5.15
